{"source": "patent US20170042171A1", "about": "“METHOD OF HANDLING MANGOES” (AGROFRESH, INC., priority 2011, published 2017)", "key": {"[1]": {"tested_on": "Mangos, Tommy Atkins variety", "assay": "Pulp firmness of mangoes after 1-MCP at different concentrations with or without modified B bag, shelf-storage simulation (Example 2)", "format": "in vivo, Mangifera indica", "settings": "for Pulp Firmness Difference from Control: 10° C. 15 hours, then ca. 22° C. three days", "procedure": "(§1) Mangoes were evaluated for peel and pulp firmness, which are commercial measures of mango quality, using the following test procedure: • Determination of peel resistant to penetration (peel firmness) was accomplished using a Chatillon penetrometer (model DPPH-100) equipped with a chisel tip (6 mm wide). • Readings were obtained choosing randomly six fruit from each treatment. Each fruit was placed by the side on the penetrometer and then the tip of the instrument (chisel) was stalled into the fruit (about 8 mm deep). Six fruits per treatment were selected and readings were used for obtaining the average value of peel firmness for each treatment. • For testing flesh firmness, the other side of the fruit selected for testing peel resistant to penetration was used. The side not tested for peel resistance to penetration was peeled using a standard fruit peeler (which removed approximately a 2 mm thick peel tissue section). The total area peeled was approximately five square centimeters. • Immediately after removing the peel, each fruit was placed on the penetrometer and a new value of firmness was obtained using the chisel tip (to a depth of about 8 mm). Average values were calculated using six fruits per treatment.\nThis experiment utilized a modified version of the “B bag”. Rather than three layers, the bag consisted of two extruded layers in an 80/20 ratio with the following composition:\nThe film was perforated using a laser to give an average hole diameter of 104 micrometers with 52 perforations per bag in four rows. The OTR of the bag was ca. 370 cc/hour.\nMangos, Tommy Atkins variety imported from Guatemala, were kept at a temperature of 10° C. for three days. Portions of the mangos were subjected to one of eight different treatments; control (no 1-MCP or bag), 1-MCP only at 500 ppb, bag only, and bag plus one of five different 1-MCP application rates (50, 100, 500, 1000, and 2500 ppb). Each mango weighed ca. 1.1 Kg. For those mangos placed in bags, the bag contained four fruits for a total of 4.4 Kg of fruit per bag. The 1-MCP applications were made at a temperature of 10° C. for 15 hours. The control and each treated sample were then kept at room temperature (ca. 22° C.) for three days to simulate shelf-storage. Bags were kept closed during the shelf-storage simulation. Pulp firmness was then determined with the following results: […]"}, "[2]": {"tested_on": "mangoes, Tommy Adkins cultivar", "assay": "Pulp firmness of mangoes after MAP bag and/or 1-MCP exposure prior to transport simulation (Example 1)", "format": "in vivo, Mangifera indica", "procedure": "as §1\nFruit was harvested from a commercial mango farm (Mango Rica S.A.) located in Liberia, Guanacaste. Costa Rica on Apr. 7, 2011. […]"}}}
{"smiles": "CC1=CC1", "note": "[1-MCP, 1-methylcyclopropene]", "values": [{"measurement": "Pulp Firmness Difference from Control", "setting": "[1]; Treatment 1: 1-MCP 500 ppb, Bag No", "value": 0.43, "unit": "Lb."}, {"measurement": "Pulp Firmness Difference from Control", "setting": "[1]; Treatment 3: 1-MCP 50 ppb, Bag Yes", "value": 2.00, "unit": "Lb."}, {"measurement": "Pulp Firmness Difference from Control", "setting": "[1]; Treatment 4: 1-MCP 100 ppb, Bag Yes", "value": 2.70, "unit": "Lb."}, {"measurement": "Pulp Firmness Difference from Control", "setting": "[1]; Treatment 5: 1-MCP 500 ppb, Bag Yes", "value": 3.35, "unit": "Lb."}, {"measurement": "Pulp Firmness Difference from Control", "setting": "[1]; Treatment 6: 1-MCP 1000 ppb, Bag Yes", "value": 2.60, "unit": "Lb."}, {"measurement": "Pulp Firmness Difference from Control", "setting": "[1]; Treatment 7: 1-MCP 2500 ppb, Bag Yes", "value": 3.29, "unit": "Lb."}, {"measurement": "expected additive effect of the 1-MCP treatment and MAP bag alone on pulp firmness", "setting": "[1]; sum of 1-MCP 500 ppb alone and bag alone", "value": 1.96, "unit": "lb"}, {"measurement": "Mango Pulp Firmness Difference (Reported as change from control*)", "setting": "[2]; 6 mangoes per bag, 500 ppb 1-MCP for 12 hours prior to transport simulation (10-12° C., 18 days), then 18° C.", "value": "−0.03", "unit": "Lbs."}, {"measurement": "mango quality based on pulp firmness (in words)", "setting": "[2]; MCP exposure prior to transport simulation", "value": "did not improve the quality of the mangoes"}]}
